# In publication PMC6642484, “Cell penetrating caspase substrates promote survival of the transplanted cells” (BMC Research Notes, 2019):
# Where a SMILES comes first, the peptide text is derived from it.
# What was measured:
# Format in all cases: cell-based
# N1E and R3 cells [1] = test: Hydrogen peroxide induced apoptosis, LIVE/DEAD staining; conditions: H2O2 100 μM, 18 h, cells untreated with peptides; average ± SEM
# Protocol: (§1) N1E and R3 ([33-10ras3] (ATCC® CRL-2764™)) cells were grown to about 80% of confluency in 6-well plates covered with D-poly-lysine. Peptides (500 nM or 10 µM) were added to the cells 1 h before treatments. The tested apoptogenic treatments were: Staurosporine (100 nM, 18 h), serum withdraw (20 days for N1E cells and 5 days for R3 cells), heat shock (43 °C, 1 h plus overnight recovery), Camptothecin (10 μM, 18 h), H2O2 (100 μM, 18 h). After the treatment the cells were carefully washed with PBS and stained simultaneously with Calcein A and Ethidium homodimer-1 (LIVE/DEAD® Viability/Cytotoxicity Kit, LifeTechnologies) for 30 min at room temperature. Cells were photographed in an inverted microscope immediately after staining. Percentage of survived cells was calculated from 3 randomly selected fields of view; average cell death rate ± SEM was calculated using GraphPad Prism (version 6.0 h for MacOS, GraphPad Software, La Jolla, USA). Antibodies specific to cleaved Caspase-3 (Asp175) (Rabbit monoclonal 5A1E, CST) were used to visualize Caspase-3 activation in N1E cells by Western blotting.
# N1E cells [2] = test: MALDI-TOF analysis of lysates from peptide-loaded cells; conditions: 500 nM peptide, 30 min at 37 °C, Triton X-100 lysate after trichloroacetic acid sedimentation, not quantitative
# Protocol: About 10^6 cells (N1E cells) were exposed to 500 nM of DL18 peptide in normal culture media for 30 min at 37 °C. After exposure the cells were washed twice with PBS, lyzed with 1% Triton X-100 in distilled water and the proteins were sedimented with equal volume of 40% trichloroacetic acid. After centrifugation (9000g, 20 min) 20 μl of supernatant was applied on MALDI plate, mixed with solution of 2,5-dihydroxybenzoic acid and subjected for MALDI-TOF analysis.
# N1E and R3 cells [3] = test: Camptothecin-induced apoptosis, LIVE/DEAD staining; conditions: Camptothecin 10 μM, 18 h, no peptide
# Protocol: as §1
# N1E cells [4] = test: Staurosporine-induced cell death, LIVE/DEAD staining; conditions: overnight exposure to 100 nM Staurosporine, no peptide, average ± SEM
# Protocol: as §1
# R3 cells = test: as above; conditions: Staurosporine 100 nM, no peptide, average ± SEM
# Protocol: as §1
compound,measurement,setting,value
"OO [H2O2, hydrogen peroxide]",dead cells,N1E and R3 cells [1],84.8 ± 4.28%
CC[C@@H](C)[C@@H](NC(=O)[C@@H](CCC(=O)O)NC(=O)[C@H](NC(=O)[C@@H](CC(=O)O)NC(=O)[C@@H](CO)NC(=O)CNC(=O)[C@H](N)[C@H](C)O)[C@H](C)O)C(=O)NCC(=O)N[C@@H](CCCNC(=N)N)C(=O)N[C@@H](CCCCN)C(=O)N[C@@H](CCCCN)C(=O)N[C@@H](CCCNC(=N)N)C(=O)N[C@@H](CCCNC(=N)N)C(=O)N[C@@H](CCC(N)=O)C(=O)N[C@@H](CCCNC(=N)N)C(=O)N[C@@H](CCCNC(=N)N)C(=O)N[C@@H](CCCNC(=N)N)C(=O)NCC(=O)O [DL18] (HELM PEPTIDE1{[dT].G.[dS].[dD].[dT].[dE].[dI].G.R.K.K.R.R.Q.R.R.R.G}$$$$V2.0),dynamics of cellular catabolism of the peptide (prevalence of non-metabolized m/z 2158 peak),N1E cells [2],not considerable
CC[C@@]1(O)C(=O)OCc2c1cc1n(c2=O)Cc2cc3ccccc3nc2-1 [Camptothecin],apoptosis induction,N1E and R3 cells [3],induces apoptosis in limited number of cells
CN[C@@H]1C[C@H]2O[C@@](C)([C@@H]1OC)n1c3ccccc3c3c4c(c5c6ccccc6n2c5c31)C(=O)NC4 [Staurosporine],cell death,N1E cells [4],89.67 ± 5.04%
same,dead cells,R3 cells,15.33 ± 3.76%
